Results reported in publication PMC4503722, “Novel Phenotypic Outcomes Identified for a Public Collection of Approved Drugs from a Publicly Accessible Panel of Assays” (PLoS ONE, 2015).

Key:
[1] = test system: INS-1E cells; assay: cells; type: cell-based, rat; settings: 5 mM glucose; for 5mMGluc_INS1E SecretionMod IC50/EC50: assay number 8;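 on all read-outs here: secreted insulin quantified by homogeneous immunoassay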
[2] = test system: endothelial tube formation in co-cultures of ECFCs and ADSCs treated with VEGF; assay: cells; type: cell-based, human
[3] = test system: NCI-H716 cells; assay: cells; type: cell-based, Human; settings: for hNCI-H716 GLP1 Secretion IC50/EC50: assay number 12; for IC50/EC50, hNCI-H716 GLP1 Secretion (assay number 12): concentration response
[4] = test system: ECFC/ADSC co-culture cell nuclei number
[5] = test system: STC-1 cell line; type: cell-based, mouse; settings: for mSTC-1 GLP1 Secretion IC50/EC50: assay number 13; for IC50/EC50, mSTC-1 GLP1 Secretion (assay number 13): concentration response
[6] = test system: SW480; assay: cells; type: cell-based; settings: assay number 24; basal
[7] = test system: HCT116 cells treated with a GSK3β inhibitor; assay: cells; type: cell-based; settings: assay number 26; GSK3b inhibitor pretreated
[8] = test system: HT-29; assay: cells; type: cell-based; settings: assay number 28; basal
[9] = test system: SNU-C1; assay: cells; type: cell-based; settings: assay number 30; basal
[10] = test system: HeLa cells; assay: cells; type: cell-based
[11] = test system: DLD-1; assay: cells; type: cell-based; settings: assay number 23; basal
[12] = test system: Colo320; assay: cells; type: cell-based; settings: assay number 27; basal
[13] = test system: RKO; assay: cells; type: cell-based; settings: assay number 29; basal
[14] = test system: HCT116; assay: cells; type: cell-based; settings: assay number 25; basal

SMILES | 5mMGluc_INS1E SecretionMod IC50/EC50 [1] | VEGF_ADSC\ECFC Angio CD31 TubeArea IC50/EC50 [2] | hNCI-H716 GLP1 Secretion IC50/EC50 [3] | VEGF_ADSC\ECFC Angio Hoechst NucArea IC50/EC50 [4] | mSTC-1 GLP1 Secretion IC50/EC50 [5] | IC50/EC50, 5mMGluc_INS1E SecretionMod (assay number 8) [1] | IC50/EC50, hNCI-H716 GLP1 Secretion (assay number 12) [3] | IC50/EC50, mSTC-1 GLP1 Secretion (assay number 13) [5] | also measured
Cc1ccc(O)cc1 [NCGC00091519-09] | > 33.33 µM | > 10 µM | > 40 µM | > 10 µM | > 40 µM |  |  |  | 
CC(C)(C)CC(C)(C)c1ccc(O)c(Cc2ccc(Cl)cc2Cl)c1 [NCGC00095016-05] | > 33.33 µM |  | 9.073 µM |  | 0.5436 µM |  |  |  | 
CCCCCN=C(N)N/N=C/c1c[nH]c2ccc(OC)cc12 [NCGC00095192-05] | 16.8442 µM | 3.1318 µM | 10.8586 µM | 7.175 µM | > 40 µM |  |  |  | 
O=C1Nc2ccc(Cl)cc2[C@@](C#CC2CC2)(C(F)(F)F)O1 [NCGC00159337-04] | 3.8674 µM |  | 21.246 µM |  | 2.476 µM |  |  |  | 
Cc1cc(OI)c(C(C)C)cc1-c1cc(C(C)C)c(OI)cc1C [NCGC00159504-04] |  |  |  |  |  | > 33.33 µM | > 40 µM | 15.1081 µM | IC50/EC50, VEGF_ADSC\ECFC Angio CD31 TubeArea (assay number 2) [2]: > 10 µM; IC50/EC50, VEGF_ADSC\ECFC Angio Hoechst NucArea (assay number 3) [4]: > 10 µM
CCN(CC)CCOc1ccc(C(O)(Cc2ccc(Cl)cc2)c2ccc(C)cc2)cc1 (stereo not shown) [NCGC00165907-03] |  | 3.2104 µM | 36.1068 µM | 6.977 µM | > 40 µM |  |  |  | Basal_Viability ATP SW480 IC50/EC50 [6]: 3.7592 µM; GSK3b inh pretreated_Viability ATP HCT116 IC50/EC50 [7]: 3.7372 µM; Basal_Viability ATP HT-29 IC50/EC50 [8]: 3.1665 µM; Basal_Viability ATP SNU-C1 IC50/EC50 [9]: 2.4577 µM; Hela CellCycMod PI 2N IC50/EC50 ([10]; assay number 14, 2N): > 10 µM; Hela CellCycMod PI S Phase IC50/EC50 ([10]; assay number 15, S phase): > 10 µM; Hela CellCycMod PI 4N IC50/EC50 ([10]; assay number 16, 4N): > 10 µM; Hela CellCycMod PI MI IC50/EC50 ([10]; assay number 17, MI): > 10 µM; Hela CellCycMod PI Cell Number IC50/EC50 ([10]; assay number 18, cell number): > 10 µM; Basal_Viability ATP DLD-1 IC50/EC50 [11]: > 20 µM; Basal_Viability ATP Colo 320 IC50/EC50 [12]: 8.9928 µM; Basal_Viability ATP RKO IC50/EC50 [13]: 0.2987 µM; Basal_Viability ATP HCT116 IC50/EC50 [14]: > 20 µM
FC(F)(F)C(F)(F)C(F)(F)C(F)(F)C(F)(F)C(F)(F)C(F)(F)C(F)(F)Br [NCGC00166217-02] | > 33.33 µM |  | > 40 µM |  | > 40 µM |  |  |  | 
C/C(=C(\CCOC(=O)C(C)C)SS/C(CCOC(=O)C(C)C)=C(/C)N(C=O)Cc1cnc(C)nc1N)N(C=O)Cc1cnc(C)nc1N [NCGC00167456-02] | > 33.33 µM |  | 2.3879 µM |  | > 40 µM |  |  |  | 
CCOC(=O)c1ccccc1O [NCGC00181161-03] |  |  |  |  |  | > 33.33 µM | > 40 µM | > 40 µM | 
Cc1cc(O)c2c(O)c3c(O)cccc3cc2c1 [NCGC00181774-02] |  |  |  |  |  | > 33.33 µM | > 20 µM | 11.3101 µM | IC50/EC50, VEGF_ADSC\ECFC Angio CD31 TubeArea (assay number 2) [2]: > 10 µM; IC50/EC50, VEGF_ADSC\ECFC Angio Hoechst NucArea (assay number 3) [4]: > 10 µM
